Patent US12024531B2, “Immunoproteasome inhibitors” (Principia Biopharma Inc., priority 2017, dated 2024)

What was measured:
Format in all cases: biochemical
[1] = molecular target: immunoproteasome LMP7/B5i subunit (Homo sapiens, UniProt P28062); assay: Caliper-based proteasome enzymatic activity assay, LMP7; conditions: human recombinant immunoproteasome 0.3 nM, FAM peptide substrate 1 μM, rt 3 h
[2] = molecular target: constitutive proteasome β5c subunit (Homo sapiens, UniProt P28074); assay: Caliper-based proteasome enzymatic activity assay, β5c; conditions: human recombinant constitutive proteasome 0.3 nM, FAM peptide substrate 1 μM, rt 3 h
[3] = molecular target: immunoproteasome LMP2 subunit (Homo sapiens, UniProt P28065); assay: Caliper-based proteasome enzymatic activity assay, LMP2; conditions: human recombinant immunoproteasome 0.3 nM, FAM peptide substrate 1 μM, rt 2 h

Row | IC50 [1] [nM] | IC50 [2] [nM] | IC50 [3] [nM] | Compound
1 | 8 | 100 | 820 | N#CC(=Cc1cccc(OCCC(=O)N[C@@H](Cc2ccccc2)B(O)O)c1)C(=O)N1CCOCC1 [Example 9, (R)-1-(3-(3-(2-cyano-3-morpholino-3-oxoprop-1-enyl)phenoxy)propanamido)-2-phenylethylboronic Acid]
2 | 42 | 2150 | > 5000 | Cc1ccc(C[C@H](NC(=O)NCCc2cccc(C=C(C#N)c3ccccn3)c2)B(O)O)cc1 [Example 77, (R)-(1-(3-(3-(2-cyano-2-(pyridin-2-yl)vinyl)phenethyl)ureido)-2-(p-tolyl)ethyl)boronic Acid]
3 | 1.1 | 1170 | > 5000 | Cc1ccc(C[C@H](NC(=O)OCCc2cccc(C=C(C#N)C(=O)N3[C@H](C)COC[C@H]3C)c2)B(O)O)cc1 [Example 85, ((R)-1-(((3-(2-cyano-3-((3R,5R)-3,5-dimethylmorpholino)-3-oxoprop-1-en-1-yl)phenethoxy)carbonyl)amino)-2-(p-tolyl)ethyl)boronic Acid]
4 | 24 | > 5000 | > 5000 | CCN(CC)C(=O)C(C#N)=Cc1cccc(CCNC(=O)N[C@@H](Cc2ccc(C)cc2)B(O)O)c1 [Example 82, (R)-(1-(3-(3-(2-cyano-3-(diethylamino)-3-oxoprop-1-en-1-yl)phenethyl)ureido)-2-(p-tolyl)ethyl)boronic Acid]
5 | 2.2 | 15 | > 5000 | N#CC(=Cc1cccc(CCNC(=O)N[C@@H](Cc2coc3ccccc23)B(O)O)c1)c1ncccn1 [Example 94, (R)-(2-(benzofuran-3-yl)-1-(3-(3-(2-cyano-2-(pyrimidin-2-yl)vinyl)phenethyl)ureido)ethyl)boronic Acid]
6 | 2.2 | 3020 | 3190 | CCN(C(=O)C(C#N)=Cc1cccc(CCOC(=O)N[C@@H](Cc2ccccc2)B(O)O)c1)C(C)(C)C [Example 69, (R)-(1-(((3-(3-(tert-butyl(ethyl)amino)-2-cyano-3-oxoprop-1-en-1-yl)phenethoxy)carbonyl)amino)-2-phenylethyl)boronic Acid]
7 | 4.6 | > 5000 | > 5000 | CCN(C)C(=O)C(C#N)=Cc1cccc(CCOC(=O)N[C@@H](Cc2ccccc2)B(O)O)c1 [Example 90, (R)-(1-(((3-(2-cyano-3-(ethyl(methyl)amino)-3-oxoprop-1-en-1-yl)phenethoxy)carbonyl)amino)-2-phenylethyl)boronic Acid]
8 | 43 | 2570 | > 5000 | Cc1ccc(C[C@H](NC(=O)NCCc2cccc(C=C(C#N)c3ccc(C(F)(F)F)cn3)c2)B(O)O)cc1 [Example 80, (R)-(1-(3-(3-(2-cyano-2-(5-(trifluoromethyl)pyridin-2-yl)vinyl)phenethyl)ureido)-2-(p-tolyl)ethyl)boronic Acid]
9 | 4 | 120 | 150 | N#CC(=Cc1cccc(OCCC(=O)N[C@@H](Cc2ccccc2)B(O)O)c1)C(=O)N1CCC1 [Example 30, (R)-(1-(3-(3-(3-(azetidin-1-yl)-2-cyano-3-oxoprop-1-en-1-yl)phenoxy)propanamido)-2-phenylethyl)boronic Acid]
10 | 0.9 | 998 | 1600 | CC1(C)COCCN1C(=O)C(C#N)=Cc1cccc(CCOC(=O)N[C@@H](Cc2ccccc2)B(O)O)c1 [Example 79, (R)-(1-(((3-(2-cyano-3-(3,3-dimethylmorpholino)-3-oxoprop-1-en-1-yl)phenethoxy)carbonyl)amino)-2-phenylethyl)boronic Acid]
11 | 1.4 | 3020 | 2520 | CC(C)N(C(=O)C(C#N)=Cc1cccc(CCOC(=O)N[C@@H](Cc2ccccc2)B(O)O)c1)C(C)C (single isomer, unassigned) [Example 75]
12 | 0.9 | 354 | 544 | N#CC(=Cc1cccc(CCOC(=O)N[C@@H](Cc2ccccc2)B(O)O)c1)c1ccncn1 [Example 59, (R)-(1-(((3-(2-cyano-2-(pyrimidin-4-yl)vinyl)phenethoxy)carbonyl)amino)-2-phenylethyl)boronic Acid]
13 | 66.4 | 1900 | 2000 | N#CC(=Cc1cccc(CCNC(=O)N[C@@H](Cc2ccccc2)B(O)O)c1)c1ccc(C(F)(F)F)cn1 [Example 73, (R)-(1-(3-(3-(2-cyano-2-(5-(trifluoromethyl)pyridin-2-yl)vinyl)phenethyl)ureido)-2-phenylethyl)boronic Acid]
14 | 1 | 7 | 16 | CC(C)(C)NC(=O)C(C#N)=Cc1cccc(CC[C@H](NC(=O)c2cc(Cl)ccc2Cl)C(=O)N[C@@H](Cc2ccccc2)B(O)O)c1 [Example 4, (R)-1-((S)-4-(3-(3-(tert-butylamino)-2-cyano-3-oxoprop-1-enyl)phenyl)-2-(2,5-dichlorobenzamido)butanamido)-2-phenylethylboronic Acid]
15 | 2.5 | 1920 | 4540 | CCN(C(=O)C(C#N)=Cc1cccc(CCOC(=O)N[C@@H](Cc2ccccc2)B(O)O)c1)C(C)C [Example 64, (R)-(1-(((3-(2-cyano-3-(ethyl(isopropyl)amino)-3-oxoprop-1-en-1-yl)phenethoxy)carbonyl)amino)-2-phenylethyl)boronic Acid]
16 | 1 | 212 | > 5000 | CN(C)C(=O)C(C#N)=Cc1cccc(CCOC(=O)N[C@@H](Cc2coc3ccccc23)B(O)O)c1 [Example 53, (R)-(2-(benzofuran-3-yl)-1-(((3-(2-cyano-3-(dimethylamino)-3-oxoprop-1-en-1-yl)phenethoxy)carbonyl)amino)ethyl)boronic Acid]
17 | 14 | 136 | 325 | N#CC(=Cc1ccc(Cl)c(OCCC(=O)N[C@@H](Cc2ccccc2)B(O)O)c1Cl)c1ccccn1 [Example 39, (R)-(1-(3-(2,6-dichloro-3-(2-cyano-2-(pyridin-2-yl)vinyl)phenoxy)propanamido)-2-phenylethyl)boronic Acid]
18 | 27.1 | > 5000 | 2750 | CC(C)N(C(=O)C(C#N)=Cc1cccc(CCOC(=O)N[C@@H](Cc2ccccc2)B(O)O)c1)C(C)C (single isomer, unassigned) [Example 74]
19 | 0.7 | > 5000 | > 5000 | C[C@H]1COC[C@H](C)N1C(=O)C(C#N)=Cc1cccc(CCOC(=O)N[C@@H](Cc2ccccc2)B(O)O)c1 [Example 68, ((R)-1-(((3-(2-cyano-3-((3S,5S)-3,5-dimethylmorpholino)-3-oxoprop-1-en-1-yl)phenethoxy)carbonyl)amino)-2-phenylethyl)boronic Acid]
20 | 1.4 | > 5000 | > 5000 | N#CC(=Cc1cccc(CCOC(=O)N[C@@H](Cc2ccccc2)B(O)O)c1)C(=O)N(C1CCOCC1)C1CCOCC1 [Example 72, (R)-(1-(((3-(3-(bis(tetrahydro-2H-pyran-4-yl)amino)-2-cyano-3-oxoprop-1-en-1-yl)phenethoxy)carbonyl)amino)-2-phenylethyl)boronic Acid]
21 | 4.6 | 33.3 | 74.4 | N#CC(=Cc1ccc2c(c1)CN(CC(=O)N[C@@H](Cc1ccccc1)B(O)O)CC2)c1ccccn1 [Example 66, (R)-(1-(2-(7-(2-cyano-2-(pyridin-2-yl)vinyl)-3,4-dihydroisoquinolin-2(1H)-yl)acetamido)-2-phenylethyl)boronic Acid]
22 | 1.1 | 45 | > 5000 | CC1(C)COCCN1C(=O)C(C#N)=Cc1cccc(CCOC(=O)N[C@@H](Cc2coc3ccccc23)B(O)O)c1 [Example 93, (R)-(2-(benzofuran-3-yl)-1-(((3-(2-cyano-3-(3,3-dimethylmorpholino)-3-oxoprop-1-en-1-yl)phenethoxy)carbonyl)amino)ethyl)boronic Acid]
23 | 1.4 | 556 | 1510 | N#CC(=Cc1cccc(CCOC(=O)N[C@@H](Cc2ccccc2)B(O)O)c1)c1cnccn1 [Example 63, (R)-(1-(((3-(2-cyano-2-(pyrazin-2-yl)vinyl)phenethoxy)carbonyl)amino)-2-phenylethyl)boronic Acid]
24 | 3 | 27 | 100 | CN(C(=O)C(C#N)=Cc1cccc(OCCC(=O)N[C@@H](Cc2ccccc2)B(O)O)c1)c1ccccc1 [Example 22, (R)-(1-(3-(3-(2-cyano-3-(methyl(phenyl)amino)-3-oxoprop-1-en-1-yl)phenoxy)propanamido)-2-phenylethyl)boronic Acid]
25 | 1.2 | 802 | > 5000 | CCN(C(=O)C(C#N)=Cc1cccc(CCOC(=O)N[C@@H](Cc2ccc(C)cc2)B(O)O)c1)C1CCOCC1 [Example 88, (R)-(1-(((3-(2-cyano-3-(ethyl(tetrahydro-2H-pyran-4-yl)amino)-3-oxoprop-1-en-1-yl)phenethoxy)carbonyl)amino)-2-(p-tolyl)ethyl)boronic Acid]
26 | 3.8 | 439 | 1770 | N#CC(=Cc1cccc(CCOC(=O)N[C@@H](Cc2ccccc2)B(O)O)c1)c1ccc(C(F)(F)F)cn1 [Example 56, (R)-(1-(((3-(2-cyano-2-(5-(trifluoromethyl)pyridin-2-yl)vinyl)phenethoxy)carbonyl)amino)-2-phenylethyl)boronic Acid]
27 | 186 | > 5000 | > 5000 | N#CC(=Cc1cccc(CCNC(=O)N[C@@H](Cc2ccccc2)B(O)O)c1)c1ccccn1 [Example 62, (R)-(1-(3-(3-(2-cyano-2-(pyridin-2-yl)vinyl)phenethyl)ureido)-2-phenylethyl)boronic Acid]
